Test results published in patent US8119841B2 (Novartis AG, priority 2006, dated 2012).
One block for each molecule: values may come before it.

How the values were obtained:
[1] = amorphous material kept under organic solvent vapor, XRPD; type: physicochemical; set-up: key: +: change detected; −: no change detected; //: not carried out as substance too soluble; conditions: room temperature, at least one week
Description: For example, about 100 mg of amorphous material are placed under organic solvent vapor for at least one week at room temperature. The solid material is investigated by XRPD (X-ray powder diffraction), and the following results are obtained: […]

[2] = dynamic vapor sorption isotherm; type: physicochemical; conditions: for reversibility of hygroscopicity: up to 60% R.H. at 25° C.
Source text: B) Dynamic Vapor Sorption Isotherm of Modification A, Modification B and Amorphous Material: In the following tables 7 and 8, R.H. stands for Relative Humidity, Sorpt. for Sorption and Desorpt. for Desorption.

[3] = equilibration in solvents, solid investigated by XRPD; type: physicochemical; set-up: key to XRPD after equilibration: +: change detected; −: no change detected; //: not carried out as substance too soluble; conditions: for change of the form: in cyclohexane or n-heptane; for XRPD after equilibration: 25 degree Celsius
Description: Between 200 mg to 700 mg of drug substance are equilibrated with 0.5 to 1 ml of solvent for at least 24 h in a water bath at the determined temperature +/−0.1° C. After equilibration, the solutions are filtered. The solid part is investigated by XRPD (X-ray Powder Diffraction).

[4] = heat of dissolution in water; type: physicochemical; conditions: about 100 mg in 100 ml of water, 25° C.; mean of three determinations
Description: About 100 mg of material is placed in a sealed glass ampoule. After equilibration at 25° C., the ampoule is broken in 100 ml of water.

[5] = XRPD at various relative humidities; type: physicochemical
Description: (§1) The aim is to evaluate the influence of the storage condition on the crystalline form of SPP100 hemifumarate For this purpose, two different experiments have been performed. The first one consists to submit SPP100 hemifumarate modification A to a nitrogen flow and to record at various time the corresponding XRPD pattern. During the second experiment the influence of relative humidity on the crystalline modification A is determined by XRPD measurement.

[6] = XRPD during storage under nitrogen flow; type: physicochemical
Description: as §1

[7] = stability of solvate single crystals to air and humidity; type: physicochemical
Description: Characterisation: Structurally, solvate forms SC and SD are characterized by single crystal X-ray diffraction. The single crystals are grown using heptane as antisolvent. The isopropanol and the ethanol solvate of SPP100 hemifumarate can be grown as small needles from isopropanol, or ethanol solution respectively, by precipitation with heptane antisolvent. As there the data quality is better, only the ethanol solvate form obtained from ethanol/heptane (so called SD, corresponding to Form D mentioned in Example 9) is discussed in detail. But from the data the conclusion can be drawn that the isopropanol solvate (so called SC) is isostructural to the ethanol solvate (when heptane is used as antisolvent). The solvate SD stoichiometry consists of one SPP100 molecule, 1/2 fumarate group and 3 solvent molecules.
They consist of a distinct channel structure along the crystallographic b-axis which occupies about 25% of the whole crystal structure volume. […] Hydrogen bonds can be found between SPP100 (hydroxyl group and protonated amine group of SPP100) and the fumarate group and between SPP100 molecules (protonated amine group and oxygen). Another H-bond exists between ethanol and SPP100 (oxygen and amine group). Dominating propagation vector of the H-bonds is the crystallographic b-axis. […]

[8] = system: severely sodium-depleted marmoset monkeys; conditions: orally or intravenously; cited from earlier work
[9] = system: patients with NYHA class II-IV heart failure and LVEF <35%; conditions: in vivo; cited from earlier work
[10] = system: patients with mild to moderate hypertension; conditions: aliskiren 75 mg to 300 mg; 4 weeks duration; cited from earlier work

SMILES: COCCCOc1cc(C[C@@H](C[C@H](N)[C@@H](O)C[C@H](C(=O)NCC(C)(C)C(N)=O)C(C)C)C(C)C)ccc1OC [SC, aliskiren hemifumarate]
stability of the structure to air and humidity [7]: very sensible to air and humidity and decompose rapidly

SMILES: COCCCOc1cc(C[C@@H](C[C@H](N)[C@@H](O)C[C@H](C(=O)NCC(C)(C)C(N)=O)C(C)C)C(C)C)ccc1OC [aliskiren, 2(S),4(S),5(S),7(S)-N-(3-amino-2,2-dimethyl-3-oxopropyl)-2,7-di(1-methylethyl)4-hydroxy-5-amino-8-[4-methoxy-3-(3-methoxy-propoxy)phenyl]-octanamide]
mean arterial pressure [8]: sustained reductions | plasma concentrations of active and total renin [8]: significant increases | plasma renin activity [8]: complete inhibition | PRA [9]: inhibited | angiotensin II levels [9]: Trends towards reduced | blood pressure [10]: Dose dependent decreases

SMILES: CCOC(=O)[C@H](CCc1ccccc1)N[C@@H](C)C(=O)N1[C@H](C(=O)O)C[C@@H]2CCC[C@@H]21 [ramipril]
PRA [9]: increased | angiotensin II levels [9]: Trends towards reduced | effects on hormonal parameters [9]: No deleterious effects

Other lines, results leading:

Modification obtained by XRPD ([1]; 1-hexanol vapor): + Typ V | Modification obtained by XRPD ([1]; 2-propanol vapor): + Typ V | Modification obtained by XRPD ([1]; Acetonitrile vapor): + Typ. IV | Modification obtained by XRPD ([1]; Dimethylformamide vapor): Mainly amorphous | Modification obtained by XRPD ([1]; Ethanol vapor): Amorphous + Typ. V | Modification obtained by XRPD ([1]; Ethyl acetate vapor): + amorphous + small amount of Typ. III | Modification obtained by XRPD ([1]; Methyl acetate vapor): + Typ I | Modification obtained by XRPD ([1]; TBME vapor): − | Modification obtained by XRPD ([1]; Tetrahydrofurane vapor): + Typ III | Modification obtained by XRPD ([1]; Toluene vapor): − | Modification obtained by XRPD ([1]; n-butanol vapor): + Typ. V | hygroscopic behavior [2]: strong hygroscopic behavior | reversibility of hygroscopicity [2]: reversible | change of the form [3]: No change
SMILES: COCCCOc1cc(C[C@@H](C[C@H](N)[C@@H](O)C[C@H](C(=O)NCC(C)(C)C(N)=O)C(C)C)C(C)C)ccc1OC [Amorphous, aliskiren hemifumarate]

heat of dissolution, Mean [4]: -7.55 kcal/mol | XRPD ([5]; 0 h, RH 0%*): Mod A | XRPD ([5]; 2.55 h, RH 10%): Mod A | XRPD ([5]; 5.01 h, RH 25%): Mod A | XRPD ([5]; 7.4 h, RH 35%): Mod A | XRPD ([5]; 9.8 h, RH 45%): Mod A | XRPD ([5]; 24.23 h, RH 45%): Mod A | XRPD ([5]; 26.86 h, RH 60%): Mod A | XRPD ([5]; 32.51 h, RH 70%): Mod A | XRPD ([5]; 47.6 h, RH 70%): Mod A | XRPD ([5]; 143.9 h, RH 70%): Mod A | Change ([6]; 0.00 hour): none | XRPD ([6]; 0.00 hour): Mod A | Change ([6]; 2.25 hour): none | XRPD ([6]; 2.25 hour): Mod A | Change ([6]; 4.53 hour): none | XRPD ([6]; 4.53 hour): Mod A | Change ([6]; 7.80 hour): none | XRPD ([6]; 7.80 hour): Mod A | Change ([6]; 13.10 hour): none | XRPD ([6]; 13.10 hour): Mod A | Change ([6]; 14.75 hour): none | XRPD ([6]; 14.75 hour): Mod A | hygroscopic behavior [2]: strong hygroscopic behavior | Sorpt. wt % 1st ([2]; R.H. 0 %): 0.00 wt % | reversibility of hygroscopicity [2]: reversible | XRPD after equilibration ([3]; Acetone): + chemical reaction | XRPD after equilibration ([3]; Acetonitrile): − | XRPD after equilibration ([3]; Cyclohexane): − | XRPD after equilibration ([3]; DMAc): + Typ III | XRPD after equilibration ([3]; Dioxane): + Typ III | XRPD after equilibration ([3]; Isopropanol): + Mod. B | XRPD after equilibration ([3]; Methylethylketone): + chemical reaction | XRPD after equilibration ([3]; Pentanol): + Typ V | XRPD after equilibration ([3]; TBME): + amorphous + Typ II | XRPD after equilibration ([3]; Tetrahydrofurane): + Typ III | XRPD after equilibration ([3]; Toluol): + amorphous | change of the form [3]: No change | XRPD after equilibration ([3]; n-heptane): −
SMILES: COCCCOc1cc(C[C@@H](C[C@H](N)[C@@H](O)C[C@H](C(=O)NCC(C)(C)C(N)=O)C(C)C)C(C)C)ccc1OC [Modification A, aliskiren hemifumarate]

heat of dissolution, Mean [4]: -5.88 kcal/mol | hygroscopic behavior [2]: strong hygroscopic behavior | hygroscopicity compared among the 3 modifications [2]: least hygroscopic form | Desorpt wt % 2nd ([2]; R.H. 0 %): 0.04 wt % | Sorpt. wt % 1st ([2]; R.H. 0 %): 0.00 wt % | Desorpt wt % 2nd ([2]; R.H. 10 %): 2.33 wt % | Sorpt. wt % 1st ([2]; R.H. 10 %): 0.94 wt % | Desorpt wt % 2nd ([2]; R.H. 20 %): 3.17 wt % | Sorpt. wt % 1st ([2]; R.H. 20 %): 1.69 wt % | Desorpt wt % 2nd ([2]; R.H. 30 %): 3.76 wt % | Sorpt. wt % 1st ([2]; R.H. 30 %): 2.53 wt % | Desorpt wt % 2nd ([2]; R.H. 40 %): 4.47 wt % | Sorpt. wt % 1st ([2]; R.H. 40 %): 3.68 wt % | Desorpt wt % 2nd ([2]; R.H. 50 %): 5.65 wt % | Sorpt. wt % 1st ([2]; R.H. 50 %): 5.52 wt % | Desorpt wt % 2nd ([2]; R.H. 60 %): 7.68 wt % | Sorpt. wt % 1st ([2]; R.H. 60 %): 7.68 wt % | reversibility of hygroscopicity [2]: reversible | change of the form [3]: No change
SMILES: COCCCOc1cc(C[C@@H](C[C@H](N)[C@@H](O)C[C@H](C(=O)NCC(C)(C)C(N)=O)C(C)C)C(C)C)ccc1OC [Modification B, aliskiren hemifumarate]
